Experimental data published in US20260200928A1, “THERAPEUTIC COMPOUNDS” (Sanofi, priority 2022, published 2026).
pIC50: −log10 of the molar value.

Biological target: T1, human IL-17A (Homo sapiens, UniProt Q16552)
T1 construct: purchased R&D Systems 7955-IL/CF
T1 sequence (Q16552 24-155): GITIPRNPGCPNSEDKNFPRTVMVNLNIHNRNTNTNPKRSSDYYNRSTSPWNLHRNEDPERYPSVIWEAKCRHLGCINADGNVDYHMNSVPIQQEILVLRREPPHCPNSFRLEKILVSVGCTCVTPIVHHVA
Assay: IL-17A AlphaLISA competition assay (block of IL-17A binding to its receptor IL-17RA)
Conditions: mean IC50 (n≥2), block of IL-17A binding to IL-17RA
Method in brief: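 Human recombinant IL-17A (7.5 nM stock) pre-incubated 30 min at RT with compound, then IL-17RA/Fc (5 nM stock) added for 90 min; AlphaLISA read with anti-Fc acceptor beads, biotinylated anti-IL-17A antibody (5 nM) and streptavidin donor beads (3 h, dark). IC50 from 4-parameter logistic fit, normalised to DMSO and 4 μM reference inhibitor; n≥2.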

Row | Molecule | pIC50
1 | CCn1nccc1C(=O)N[C@H](C(=O)Nc1cc(C(C2CC2)N2C[C@@H](C(F)(F)F)NC2=O)ccn1)C1CCC(F)(F)CC1 (single isomer, unassigned) [Example 165, N-((1S)-2-((4-((R or S)-cyclopropyl((S)-2-oxo-4-(trifluoromethyl)imidazolidin-1-yl)methyl)pyridin-2-yl)amino)-1-(4,4-difluorocyclohexyl)-2-oxoethyl)-1-ethyl-1H-pyrazole-5-carboxamide] | 7.39
2 | CCn1nccc1C(=O)N[C@H](C(=O)Nc1cc(C(COC)N2C[C@@H](C(F)(F)F)NC2=O)ccn1)[C@H]1CC[C@H](C)CC1 (single isomer, unassigned) [Example 124] | 7.70
3 | [2H]C(c1ccnc(NC(=O)[C@@H](NC(=O)OC(C)(C)C)[C@H]2CC[C@H](C)CC2)c1)N1C[C@@H](C(F)(F)F)NC1=O (stereo partly drawn) [Example 151, Tert-butyl ((1S)-1-((1r,4S)-4-methylcyclohexyl)-2-oxo-2-((4-(((S)-2-oxo-4-(trifluoromethyl)-imidazolidin-1-yl)methyl-d)pyridin-2-yl)amino)ethyl)carbamate] | 6.40
4 | Cn1nccc1C(=O)N[C@H](C(=O)Nc1cc(CC(=O)NCCC(F)(F)F)ccn1)C(C1CC1)C1CC1 [Example 31, (S)—N-(1,1-dicyclopropyl-3-oxo-3-((4-(2-oxo-2-((3,3,3-trifluoro-propyl)amino)ethyl)pyridin-2-yl)amino)propan-2-yl)-1-methyl-1H-pyrazole-5-carboxamide] | 5.30
5 | CC[C@H](c1ccnc(NC(=O)[C@@H](NC(=O)c2ccnn2C(C)C)C2CCC(F)(F)CC2)c1)N1C[C@@H](C(F)(F)F)NC1=O [Example 215, N-((S)-1-(4,4-difluorocyclohexyl)-2-oxo-2-((4-((R)-1-((S)-2-oxo-4-(trifluoromethyl)imidazolidin-1-yl)propyl)pyridin-2-yl)amino)ethyl)-1-isopropyl-1H-pyrazole-5-carboxamide] | 7.19
6 | CCn1nccc1C(=O)N[C@H](C(=O)Nc1cc([C@@H](COC)N2C[C@@H](C(F)(F)F)NC2=O)ccn1)[C@H]1CCCC(F)(F)C1 (single isomer, unassigned) [Example 308] | 7.13
7 | COC[C@H](c1ccnc(NC(=O)C(NC(=O)c2nonc2C2CC2)C2CCC(C)(F)CC2)c1)N1C[C@@H](C(F)(F)F)NC1=O (single isomer, unassigned) [Example 296] | 5.35
8 | N-((1S)-1-(4-chlorocyclohexyl)-2-((4-((S)-2-methoxy-1-((S)-2-oxo-4-(trifluoromethyl)imidazolidin-1-yl)ethyl)pyridin-2-yl)amino)-2-oxoethyl)-1-methyl-1H-pyrazole-5-carboxamide [Example 311] | 7.02
9 | CC[C@H](c1ccnc(NC(=O)[C@@H](NC(=O)c2nonc2C)[C@H]2CC[C@H](C)CC2)c1)N1C[C@@H](C(F)(F)F)NC1=O [Example 256, 4-methyl-N—((S)-1-((1r,4S)-4-methylcyclohexyl)-2-oxo-2-((4-((R)-1-((S)-2-oxo-4-(trifluoromethyl)imidazolidin-1-yl)propyl)pyridin-2-yl)amino)ethyl)-1,2,5-oxadiazole-3-carboxamide] | 7.47
10 | CCC(c1ccnc(NC(=O)C(NC(=O)c2ccnn2C)C2CCC(C)CC2)c1)N1CC(C(F)(F)F)NC1=O [Example 259, 1-methyl-N-((S)-1-((1r,4S)-4-methylcyclohexyl)-2-oxo-2-((4-((R)-1-((S)-2-oxo-4-(trifluoromethyl)imidazolidin-1-yl)propyl)pyridin-2-yl)amino)ethyl)-1H-pyrazole-5-carboxamide] | 8.22
11 | CC(C)n1nccc1C(=O)N[C@H](C(=O)Nc1cc(O[C@H]2C[C@@H](C(F)(F)F)NC2=O)ccn1)[C@H]1CC[C@H](C)CC1 [Example 320, 1-isopropyl-N—((S)-1-((1r,4S)-4-methylcyclohexyl)-2-oxo-2-((4-(((3S,5S)-2-oxo-5-(trifluoromethyl)pyrrolidin-3-yl)oxy)pyridin-2-yl)amino)ethyl)-1H-pyrazole-5-carboxamide] | 6.22
12 | CC1CCC(C(NC(=O)c2ccnn2C)C(=O)Nc2cc(C(C)N3CC(C(F)(F)F)NC3=O)ccn2)CC1 [Example 240, 1-methyl-N-((S)-1-((1r,4S)-4-methylcyclohexyl)-2-oxo-2-((4-((R)-1-((S)-2-oxo-4-(trifluoromethyl)imidazolidin-1-yl)ethyl)pyridin-2-yl)amino)ethyl)-1H-pyrazole-5-carboxamide] | 7.80
13 | COCC(c1ccnc(NC(=O)[C@@H](NC(=O)OC(C)(C)C)[C@H]2CC[C@H](C)CC2)c1)N1C[C@@H](C(F)(F)F)NC1=O (single isomer, unassigned) [Example 66, tert-butyl ((S)-2-((4-((R or S)-2-methoxy-1-((S)-2-oxo-4-(trifluoromethyl)imidazolidin-1-yl)ethyl)pyridin-2-yl)amino)-1-((1r,4S)-4-methylcyclohexyl)-2-oxoethyl)carbamate] | 7.13
14 | CC(C)(C)OC(=O)N[C@H](C(=O)Nc1cc(C(NC(=O)CCC(F)(F)F)C2CC2)ccn1)[C@H]1CC[C@H](C)CC1 (single isomer, unassigned) [Example 73] | 6.00
15 | COC[C@H](c1ccnc(NC(=O)[C@@H](NC(=O)c2ccnn2C(C)C)C2CCC(Cl)CC2)c1)N1C[C@@H](C(F)(F)F)NC1=O (stereo partly drawn) [Example 312, N-((1S)-1-(4-chlorocyclohexyl)-2-((4-((S)-2-methoxy-1-((S)-2-oxo-4-(trifluoromethyl)imidazolidin-1-yl)ethyl)pyridin-2-yl)amino)-2-oxoethyl)-1-isopropyl-1H-pyrazole-5-carboxamide] | 6.92
16 | COCC(NC(=O)CCC(F)(F)F)c1ccnc(NC(=O)[C@@H](NC(=O)c2ccnn2C)C2CCC(F)(F)CC2)c1 (single isomer, unassigned) [Example 143] | 5.49
17 | Cn1nccc1C(=O)NC(C(=O)Nc1cc(C(C)(C)N2C[C@@H](C(F)(F)F)NC2=O)ccn1)C1CCC(F)(F)CC1 (stereo in doubt) [Example 172, N—((S)-1-(4,4-difluorocyclohexyl)-2-oxo-2-((4-(2-((S)-2-oxo-4-(trifluoro-methyl)imidazolidin-1-yl)propan-2-yl)pyridin-2-yl)amino)ethyl)-1-methyl-1H-pyrazole-5-carboxamide] | 5.93
18 | C[C@@H](OC(C)(C)C)[C@H](NC(=O)OCc1ccccc1)C(=O)Nc1cc(CN2C[C@@H](C(F)(F)F)NC2=O)ccn1 [Example 101, benzyl ((2S,3R)-3-(tert-butoxy)-1-oxo-1-((4-(((S)-2-oxo-4-(trifluoromethyl)imidazolidin-1-yl)methyl)pyridin-2-yl)amino)butan-2-yl)carbamate] | 5.27
19 | C[C@H]1CC[C@@H]([C@H](NC(=O)c2nonc2C2CC2)C(=O)Nc2cc(CN3C[C@@H](C(F)(F)F)NC3=O)ccn2)CC1 [Example 263, 4-Cyclopropyl-N—((S)-1-((1s,4R)-4-methylcyclohexyl)-2-oxo-2-((4-(((S)-2-oxo-4-(trifluoromethyl)imidazolidin-1-yl)methyl)pyridin-2-yl)amino)ethyl)-1,2,5-oxadiazole-3-carboxamide] | 7.05
20 | CC1CCC(C(NC(=O)c2ccnn2C(C)C)C(=O)Nc2cc(C(C)N3CC(C(F)(F)F)NC3=O)ccn2)CC1 [Example 241, 1-isopropyl-N-((S)-1-((1r,4S)-4-methylcyclohexyl)-2-oxo-2-((4-((R)-1-((S)-2-oxo-4-(trifluoromethyl)imidazolidin-1-yl)ethyl)pyridin-2-yl)amino)ethyl)-1H-pyrazole-5-carboxamide] | 7.54
21 | COCC(c1ccnc(NC(=O)[C@@H](NC(=O)c2nc(Cl)ncc2C)[C@H]2CC[C@H](C)CC2)c1)N1C[C@@H](C(F)(F)F)NC1=O (single isomer, unassigned) [Example 95] | 5.26
22 | CCc1nocc1C(=O)N[C@H](C(=O)Nc1cc([C@@H](COC)N2C[C@@H](C(F)(F)F)NC2=O)ccn1)[C@H]1CCCC(F)(F)C1 (single isomer, unassigned) [Example 307] | 7.29
23 | CN1C(=O)N(Cc2ccnc(NC(=O)[C@@H](NC(=O)OC(C)(C)C)[C@H]3CC[C@H](C)CC3)c2)CC12CCC2 [Example 23, Tert-butyl ((S)-2-((4-((5-methyl-6-oxo-5,7-diazaspiro[3.4]octan-7-yl)methyl)pyridin-2-yl)amino)-1-((1r,4S)-4-methylcyclohexyl)-2-oxoethyl)carbamate] | 5.16
24 | [2H]C([2H])([2H])C([2H])([2H])n1nccc1C(=O)N[C@H](C(=O)Nc1cc([C@@H](COC)N2C[C@@H](C(F)(F)F)NC2=O)ccn1)C1CCC(F)(F)CC1 [Example 189, N-((S)-1-(4,4-difluorocyclohexyl)-2-((4-((S)-2-methoxy-1-((S)-2-oxo-4-(trifluoromethyl)imidazolidin-1-yl)ethyl)pyridin-2-yl)amino)-2-oxoethyl)-1-(ethyl-d5)-1H-pyrazole-5-carboxamide] | 7.19
25 | CCn1nccc1C(=O)NC(C(=O)Nc1cc(C[C@H]2C[C@@H](C(F)(F)F)NC2=O)ccn1)C(C1CC1)C1CC1 (stereo in doubt) [Example 230, N—((S)-1,1-dicyclopropyl-3-oxo-3-((4-(((3S,5S)-2-oxo-5-(trifluoromethyl)-pyrrolidin-3-yl)methyl)pyridin-2-yl)amino)propan-2-yl)-1-ethyl-1H-pyrazole-5-carboxamide] | 7.02
26 | COCC(NC(=O)CCC(F)(F)F)c1ccnc(NC(=O)[C@@H](NC(=O)c2nccn2C(C)C)C2CCC(F)(F)CC2)c1 (single isomer, unassigned) [Example 148] | 5.08
27 | COCC(c1ccnc(NC(=O)[C@@H](NC(=O)c2conc2C(C)C)[C@H]2CC[C@H](C)CC2)c1)N1C[C@@H](C(F)(F)F)NC1=O (single isomer, unassigned) [Example 77] | 7.22
